Each structure is given as a SMILES string. Where only a bound is given, the exact number is not on record here.

The source of these data is patent US7915268B2, “8-substituted 2-(benzimidazolyl)purine derivatives for immunosuppression” (Wyeth LLC, priority 2006, dated 2011).

This experiment has as its target T1, Jak3 (Homo sapiens, UniProt P52333).
T1 construct: catalytic domain of Jak3 (508aa to 1124aa); made in house; host or cells: Sf9 insect cells (baculovirus, pFastBac 1)
T1 sequence (P52333 508-1124): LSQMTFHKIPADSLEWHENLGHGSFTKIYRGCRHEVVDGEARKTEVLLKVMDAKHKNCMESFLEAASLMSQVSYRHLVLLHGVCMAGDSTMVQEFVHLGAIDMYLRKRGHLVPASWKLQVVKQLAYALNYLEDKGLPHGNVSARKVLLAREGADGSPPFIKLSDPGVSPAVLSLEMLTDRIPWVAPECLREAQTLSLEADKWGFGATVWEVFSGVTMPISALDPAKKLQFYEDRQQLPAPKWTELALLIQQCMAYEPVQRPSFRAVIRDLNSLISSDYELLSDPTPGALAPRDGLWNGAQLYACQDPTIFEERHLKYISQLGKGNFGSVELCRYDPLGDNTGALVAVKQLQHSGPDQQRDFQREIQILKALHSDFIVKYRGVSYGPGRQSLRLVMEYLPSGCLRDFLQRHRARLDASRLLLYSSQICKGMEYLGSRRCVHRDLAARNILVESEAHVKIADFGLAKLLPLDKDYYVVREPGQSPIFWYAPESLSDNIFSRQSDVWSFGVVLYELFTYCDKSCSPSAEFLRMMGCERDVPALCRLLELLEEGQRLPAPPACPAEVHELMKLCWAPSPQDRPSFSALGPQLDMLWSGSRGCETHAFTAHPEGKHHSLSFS
As to the kind of experiment: Jak3 Kinase Assay (HTRF, GST-Jak3 catalytic domain). The class given is biochemical. As to conditions: 1 μM ATP, 60-min incubation, read-out: Jak 3 (Converted). The protocol: Human Jak3 cDNA was amplified by PCR. A fragment encoding the catalytic domain of Jak3 (508aa to 1124aa) was ligated with GST at 5′ end. This fused GST-Jak3 DNA fragment was cloned into the EcoRI site of the donor plasmid pFastBac 1 (Life Technologies #10359-016). The transformation, transposition, and transfection of insect cells (Sf9) were performed according to the manufacture's instructions. The cell lysate containing recombinant GST-Jak3 was used in the kinase assay. Anti-GST antibody (10 μg/ml, Sigma #G1417) was coated onto a 384-well plate at 4° C. overnight. Cell lysate containing GST-Jak3 (1:100 dilution) was added to the anti-GST coated plates, and GST-Jak3 was captured by immobilized anti-GST antibody. Testing compounds and substrate mix (50 mM HEPES, pH 7, 0.5 mM Na3VO4, 25 mM MgCl2, 1 mM DTT, 0.005% BSA, 1 μM ATP, and 4.5 μg/ml biotinyl poly-Glu, Ala, Tyr) were added to the plate to initiate the reaction. After a 60-min incubation, the reaction was stopped by 4 mM EDTA, and phosphorylation of biotinyl poly-Glu, Ala, Tyr was detected using 17 μg/ml Cy5-streptavidin (Amersham, #PA92005) and 2.7 μg/ml Europium-conjugated anti-phosphotyrosine antibody (PerkinElmer #AD0069) using homogeneous time-resolved fluorescence (HTRF) technology.
For orientation: Time-resolved FRET reads energy transfer from a long-lived donor to a nearby acceptor.
For the molecule `Fc1ccc2ncn(-c3ncc4nc(-c5cnc[nH]5)n(C5CCOCC5)c4n3)c2c1` [Example 30], the IC50 fell in the range of 100 to 1000 nM.
For the molecule `Oc1cccc(-c2nc3cnc(-n4cnc5ccc(F)cc54)nc3n2C2CCOCC2)c1` [Example 71], the IC50 was less than 100 nM.
With `N#Cc1ccc2ncn(-c3ncc4nc(NC5CCCC5)n([C@@H]5CCOc6ccccc65)c4n3)c2c1` [Example 98], the IC50 was less than 100 nM.
Take `COC(=O)c1cccc(-c2nc3cnc(-n4cnc5ccc(F)cc54)nc3n2C2CCOCC2)c1` [Example 31]: the IC50 lay within 100 to 1000 nM.
In the case of `COCCCn1c(-c2ccccc2)nc2cnc(-n3cnc4ccccc43)nc21` [Example 85], the IC50 is more than 1000 nM.
With `Fc1ccc(-c2nc3cnc(-n4cnc5ccc(F)cc54)nc3n2C2CCOCC2)nc1` [Example 68] the figure was 100 to 1000 nM; with `Fc1ccc2ncn(-c3ncc4nc(-c5ccco5)n(C5CCOCC5)c4n3)c2c1` [Example 35], less than 100 nM; with `O[C@@H]1CC[C@@H](n2c(-c3cncnc3)nc3cnc(-n4cnc5ccc(F)cc54)nc32)c2ccccc21` [Example 112, (1R,4R)-4-(2-(6-Fluoro-1H-benzo[d]imidazol-1-yl)-8-(pyrimidin-5-yl)-9H-purin-9-yl)-1,2,3,4-tetrahydronaphthalen-1-ol], less than 100 nM.
With `COc1ccc(-c2nc3cnc(-n4cnc5ccc(C#N)cc54)nc3n2C2CCOCC2)cc1` [Example 19], the IC50 lay within 100 to 1000 nM.
As to `Cc1nc2cnc(-n3cnc4ccc(Cl)cc43)nc2n1[C@H](C)C(=O)NCC(F)(F)F` [Example 92, (2R)-2-(2-(6-chloro-1H-benzo[d]imidazol-1-yl)-8-methyl-9H-purin-9-yl)-N-(2,2,2-trifluoroethyl)propanamide], the IC50 is less than 100 nM.
For `Cc1nc2cnc(-n3cnc4ccccc43)nc2n1[C@@H]1CCOc2c(F)cccc21` [Example 81, 2-(1H-benzo[d]imidazol-1-yl)-9-((R)-8-fluorochroman-4-yl)-8-methyl-9H-purine], the IC50 was less than 100 nM.
Regarding `O=C(O)c1cccc(-c2nc3cnc(-n4cnc5ccc(F)cc54)nc3n2C2CCOCC2)c1` [Example 45], the IC50 is less than 100 nM.
Regarding `Cc1ccc([C@@H](C)n2c(C)nc3cnc(-n4cnc5ccc(C#N)cc54)nc32)o1` [Example 99], the IC50 lay in the range of 100 to 1000 nM.
For `Fc1ccc2ncn(-c3ncc4nc(-c5ccc(F)nc5)n([C@@H]5CCOc6c(F)cccc65)c4n3)c2c1` [Example 103, 2-(6-fluoro-1H-benzo[d]imidazol-1-yl)-9-((R)-8-fluorochroman-4-yl)-8-(6-fluoropyridin-3-yl)-9H-purine], the IC50 is less than 100 nM.
`Fc1ccc2ncn(-c3ncc4nc(-c5cccnc5)n(C5CCOCC5)c4n3)c2c1` [Example 37]: the IC50 was less than 100 nM.
To `CSc1nc2cnc(-n3cnc4ccc(F)cc43)nc2n1[C@@H]1CCOc2c(F)cccc21` [Example 111] belongs less than 100 nM; to `CCNc1nc2cnc(-n3cnc4ccc(C#N)cc43)nc2n1C1CCOCC1` [Example 96, 3-(8-(ethylamino)-9-(tetrahydro-2H-pyran-4-yl)-9H-purin-2-yl)-3H-benzo[d]imidazole-5-carbonitrile], less than 100 nM; to `Cc1nc2cnc(-n3cnc4ccc(C#N)cc43)nc2n1C1CCOCC1` [Example 25, 3-(8-Methyl-9-(tetrahydro-2H-pyran-4-yl)-9H-purin-2-yl)-3H-benzo[d]imidazole-5-carbonitrile], less than 100 nM.
With `Cc1ccc(-c2nc3cnc(-n4cnc5ccc(F)cc54)nc3n2C2CCOCC2)o1` [Example 52] the figure was 100 to 1000 nM; with `Fc1ccc2ncn(-c3ncc4nc(-c5ccc(Br)cn5)n(C5CCOCC5)c4n3)c2c1` [Example 64], 100 to 1000 nM; with `N#Cc1ccc2ncn(-c3ncc4nc(NCCN5CCCCC5)n(C5CCOCC5)c4n3)c2c1` [Example 94], less than 100 nM.
Turning to `N#Cc1ccc2ncn(-c3ncc4nc(Nc5cccnc5)n(C5CCOCC5)c4n3)c2c1` [Example 107], the IC50 was less than 100 nM.
As to `Cc1nc2cnc(-n3cnc4ccc(F)cc43)nc2n1C1CCOCC1` [Example 72], the IC50 was less than 100 nM.
Turning to `Fc1ccc2ncn(-c3ncc4nc(-c5ccncc5)n(C5CCOCC5)c4n3)c2c1` [Example 32], the IC50 is less than 100 nM.
With `Cc1cccc(-c2nc3cnc(-n4cnc5ccc(F)cc54)nc3n2C2CCOCC2)n1` [Example 41] the figure was more than 1000 nM; with `N#Cc1ccc2ncn(-c3ncc4nc(-c5ccccc5)n(C5CCOCC5)c4n3)c2c1` [Example 16], less than 100 nM; with `Oc1cccc(-c2nc3cnc(-n4cnc5ccc(F)cc54)nc3n2[C@@H]2CCOc3c(F)cccc32)c1` [Example 28], 100 to 1000 nM.
To `N#Cc1ccc2ncn(-c3ncc4nc(Nc5ccccc5F)n(C5CCOCC5)c4n3)c2c1` [Example 109] belongs less than 100 nM; to `COCCCn1c(C)nc2cnc(-n3cnc4ccccc43)nc21` [Example 84], more than 1000 nM.
In the case of `Oc1ccccc1-c1nc2cnc(-n3cnc4ccc(F)cc43)nc2n1C1CCOCC1` [Example 44], the IC50 is 100 to 1000 nM.
For `Fc1ccc2ncn(-c3ncc4nc(-c5cccc(Cl)c5)n(C5CCOCC5)c4n3)c2c1` [Example 60], the IC50 is 100 to 1000 nM.
As for `N#Cc1ccc2ncn(-c3ncc4nc(-c5cnc(O)nc5O)n(C5CCOCC5)c4n3)c2c1` [Example 10], the IC50 was less than 100 nM.
As to `Cc1ccccc1-c1nc2cnc(-n3cnc4ccc(C#N)cc43)nc2n1C1CCOCC1` [Example 3], the IC50 fell in the range of 100 to 1000 nM.
In the case of `Fc1ccc2ncn(-c3ncc4nc(-c5ncc[nH]5)n(C5CCOCC5)c4n3)c2c1` [Example 33, 2-(6-Fluoro-1H-benzo[d]imidazol-1-yl)-8-(1H-imidazol-2-yl)-9-(tetrahydro-2H-pyran-4-yl)-9H-purine], the IC50 is 100 to 1000 nM.
Take `N#Cc1ccc2ncn(-c3ncc4nc(Nc5ccc(S(N)(=O)=O)cc5)n(C5CCOCC5)c4n3)c2c1` [Example 105, 4-(2-(6-cyano-1H-benzo[d]imidazol-1-yl)-9-(tetrahydro-2H-pyran-4-yl)-9H-purin-8-ylamino)benzenesulfonamide]: the IC50 is less than 100 nM.
Regarding `Cc1nc2cnc(-n3cnc4ccc(C#N)cc43)nc2n1[C@@H]1CC[C@@H](O)c2ccccc21` [Example 100, 3-(9-((1R,4R)-4-Hydroxy-1,2,3,4-tetrahydronaphthalen-1-yl)-8-methyl-9H-purin-2-yl)-3H-benzo[d]imidazole-5-carbonitrile], the IC50 is less than 100 nM.
As to `N#Cc1ccc2ncn(-c3ncc4nc(-c5cccc(O)c5)n(C5CCOCC5)c4n3)c2c1` [Example 8], the IC50 was less than 100 nM.
As for `CCNc1nc2cnc(-n3cnc4ccc(C#N)cc43)nc2n1[C@@H]1CCOc2ccccc21` [Example 97], the IC50 is less than 100 nM.
`Fc1ccc2ncn(-c3ncc4nc(-c5ccccn5)n(C5CCOCC5)c4n3)c2c1` [Example 66]: the IC50 was 100 to 1000 nM.
`Fc1ccc2ncn(-c3ncc4nc(-c5ccncn5)n(C5CCOCC5)c4n3)c2c1` [Example 69]: the IC50 is less than 100 nM.
To `N#Cc1ccc2ncn(-c3ncc4nc(-c5cncnc5)n([C@@H]5CCOc6c(F)cc(F)cc65)c4n3)c2c1` [Example 15] belongs less than 100 nM; to `Fc1ccc2ncn(-c3ncc4c(n3)C([C@@H]3CCOc5ccccc53)C(CCl)=N4)c2c1` (stereo partly shown) [Example 77], less than 100 nM.
Take `Fc1ccc2ncn(-c3ncc4nc(-c5nccs5)n(C5CCOCC5)c4n3)c2c1` [Example 48]: the IC50 lay in the range of 100 to 1000 nM.
`CCCc1nc2cnc(-n3cnc4ccc(C#N)cc43)nc2n1C1CCOc2ccc(F)cc21` (stereo not shown) [Example 22]: the IC50 was less than 100 nM.
In the case of `Fc1cccc(-c2nc3cnc(-n4cnc5ccc(F)cc54)nc3n2C2CCOCC2)c1` [Example 67], the IC50 was 100 to 1000 nM.
With `Oc1ccc(-c2nc3cnc(-n4cnc5ccc(F)cc54)nc3n2C2CCOCC2)cc1` [Example 54] the figure was 100 to 1000 nM; with `Fc1ccc2ncn(-c3ncc4nc(-c5ccncc5)n([C@@H]5CCOc6c(F)cccc65)c4n3)c2c1` [Example 49], less than 100 nM.
On to `Fc1ccc2ncn(C3N=c4c(nc(-c5ccnc6ccccc56)n4C4CCOCC4)=CN3)c2c1` (stereo not shown) [Example 56], for which the IC50 was more than 1000 nM.
Take `COc1cccc(Nc2nc3cnc(-n4cnc5ccc(C#N)cc54)nc3n2C2CCOCC2)c1` [Example 108]: the IC50 is less than 100 nM.
